Test results as given in ChEMBL document CHEMBL1128746, “Aminoalkylindoles: structure-activity relationships of novel cannabinoid mimetics” (J Med Chem, 1995).

Legend:
[1] = target: Cannabinoid receptor 1 (Rattus norvegicus) (UniProt P20272); test: […] [3H]WIN-55212 binding to Cannabinoid receptor 1 in rat cerebellum membranes.; type: cell membranes; details: Membrane, concentration not given here
Mus musculus = organism: Mus musculus; test: Concentration required to inhibit electrically induced contractions in isolated mouse vas deferens preparation in vitro; type: functional; details: Mus musculus

Cannabinoid receptor 1 (Rattus norvegicus), sequence (P20272 whole entry): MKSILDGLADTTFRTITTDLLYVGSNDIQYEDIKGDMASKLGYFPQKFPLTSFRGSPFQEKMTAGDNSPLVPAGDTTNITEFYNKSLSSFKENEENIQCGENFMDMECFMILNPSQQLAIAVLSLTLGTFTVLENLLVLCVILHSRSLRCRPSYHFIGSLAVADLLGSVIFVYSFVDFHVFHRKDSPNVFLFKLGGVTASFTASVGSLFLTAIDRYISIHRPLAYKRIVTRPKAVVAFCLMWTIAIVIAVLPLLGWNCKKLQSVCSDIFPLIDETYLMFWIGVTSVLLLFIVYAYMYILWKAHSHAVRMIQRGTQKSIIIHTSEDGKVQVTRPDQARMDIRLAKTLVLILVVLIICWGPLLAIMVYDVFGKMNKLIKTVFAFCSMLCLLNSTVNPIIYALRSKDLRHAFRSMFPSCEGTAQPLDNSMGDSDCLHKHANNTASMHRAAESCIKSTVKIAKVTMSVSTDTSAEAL

| Structure (SMILES) | inhibition [1] [%] | IC50 (Mus musculus) [nM] |
| --- | --- | --- |
| COc1ccc(C(=O)c2cn(CCN3CCOCC3)c3cc(Br)ccc23)cc1 | 21 | 17 |
| COc1ccc(C(=O)c2c(C)n(CCN3CCOCC3)c3ccc(F)cc23)cc1 | 19 | 119 |
| Cc1c(C(=O)c2ccc(-c3ccccc3)cc2)c2ccccc2n1CCN1CCOCC1 | 9 | 10000 |
| Cc1cc(C)cc(C(=O)c2c(C)n(CCN3CCOCC3)c3ccccc23)c1 | 42 | 390 |
| Cc1c(C(=O)c2ccc3ccc4cccc5ccc2c3c45)c2ccccc2n1CCN1CCOCC1 | 89 | 42 |
| COc1ccc(C(=O)c2c(Cl)n(CCN3CCOCC3)c3ccccc23)cc1 | 47 | 176 |
| COc1ccc(C(=O)c2c(C)n(CCCN3CCOCC3)c3ccccc23)cc1 | -6 | 360 |
| Cc1c(C(=O)c2cccc3cc4ccccc4cc23)c2ccccc2n1CCN1CCOCC1 | 74 | 57 |
| COc1ccc(C(=O)c2c(C)n(C(C)CN3CCOCC3)c3ccccc23)cc1 (stereo not given) | 34 | 1360 |
| COc1ccc(C(=O)c2c(C)n(CCN3CCCCC3)c3ccccc23)cc1 | 34 | 1430 |
| N#Cc1ccc(C(=O)c2cn(CCN3CCOCC3)c3ccccc23)c2ccccc12 | 96 | 4.8 |
| COc1ccc(C(=O)c2c(C)n(CCO)c3ccccc23)cc1 | -6 | > 10000 |
| Cc1cccc(C)c1C(=O)c1c(C)n(CCN2CCOCC2)c2ccccc12 | -5 | 1570 |
| COc1ccc(C(=O)c2c(C)n(CCN3CCOCC3)c3c(OC)cccc23)cc1 | 64 | 266 |
| Cc1[nH]c2ccccc2c1C(=O)c1cccc2ccccc12 | 3 | > 10000 |
| COc1ccc(C(=O)c2c(C)n(CC[N+]3([O-])CCOCC3)c3ccccc23)cc1 | -9 | > 10000 |
| O=C(c1ccc(Br)c2ccccc12)c1cn(CCN2CCOCC2)c2ccccc12 | 98 | 5.5 |
| COc1ccc(C(=O)c2c(C)n(CCN3CCCC3)c3ccccc23)cc1 | 7 | 241 |

| Structure (SMILES) | inhibition [1] [%] | IC50 (Mus musculus) [nM] |
| --- | --- | --- |
| COc1ccc(C(=O)c2cn(C(C)CN3CCOCC3)c3ccccc23)cc1 (stereo not given) | 35 | 3670 |
| COc1ccc(C(=O)c2c(C)n(CCN3CCOCC3)c3ccc(OC)cc23)cc1 | 14 | > 10000 |
| Cc1c(C(=O)c2cc3ccccc3c3ccccc23)c2ccccc2n1CCN1CCOCC1 | 75 | 175 |
| Cc1c(C(=O)c2ccccc2F)c2ccccc2n1CCN1CCOCC1 | 15 | 1940 |
| Cc1c(C(=O)c2ccccc2Cl)c2ccccc2n1CCN1CCOCC1 | 59 | 92 |
| Cc1c(C(=O)c2cccc3ccccc23)c2ccccc2n1CC(=O)O | 21 | 9740 |
| COc1ccc(C(=O)c2c(C)n(CCN3CCOCC3)c3ccc(C)cc23)cc1 | 7 | > 10000 |
| O=C(c1cccc2c1CCCC2)c1cn(CCN2CCOCC2)c2ccccc12 | 97 | 6 |
| Cc1c(C=O)c2ccccc2n1CCN1CCOCC1 | 37 | 656 |
| Cc1c(C(=O)c2cnc3ccccc3c2)c2ccccc2n1CCN1CCOCC1 | 28 | 571 |
| Cc1ccccc1C(=O)c1c(C)n(CCN2CCOCC2)c2ccccc12 | 13 | 715 |
| Cc1c(C(=O)c2ccc(O)cc2)c2ccccc2n1CCN1CCOCC1 | 15 | > 10000 |
| COc1cccc(C(=O)c2c(C)n(CCN3CCOCC3)c3ccccc23)c1 | 76 | 206 |
| COc1ccc(C(=O)c2c(C)n(CCN3CCOCC3)c3cccc(C)c23)cc1 | 42 | > 10000 |
| C[N+]1(CCn2cc(C(=O)c3cccc4ccccc34)c3ccccc32)CCOCC1 | 14 | 180 |
| Cc1c(C(=O)c2ccc(C#N)cc2)c2ccccc2n1CCN1CCOCC1 | -1 | > 10000 |
| Cc1c(C(=O)c2ccc(Cl)cc2)c2ccccc2n1CCN1CCOCC1 | 62 | 564 |
